Reference: patent publication US20210070735A1, “RIP1 INHIBITORY COMPOUNDS AND METHODS FOR MAKING AND USING THE SAME” (Rigel Pharmaceuticals, Inc., priority 2019, published 2021)

Tests used:
murine RIP1 = target: T1, murine RIP1 (Mus musculus, UniProt Q60855); test: L929 cell necroptosis assay (TNFa + zVAD, CellTiter-Glo); assay type: cell-based
T1 construct: U937 and L929 cells were obtained from the American Type Culture Collection; host or cells: L929
T1 sequence (Q60855 1-656): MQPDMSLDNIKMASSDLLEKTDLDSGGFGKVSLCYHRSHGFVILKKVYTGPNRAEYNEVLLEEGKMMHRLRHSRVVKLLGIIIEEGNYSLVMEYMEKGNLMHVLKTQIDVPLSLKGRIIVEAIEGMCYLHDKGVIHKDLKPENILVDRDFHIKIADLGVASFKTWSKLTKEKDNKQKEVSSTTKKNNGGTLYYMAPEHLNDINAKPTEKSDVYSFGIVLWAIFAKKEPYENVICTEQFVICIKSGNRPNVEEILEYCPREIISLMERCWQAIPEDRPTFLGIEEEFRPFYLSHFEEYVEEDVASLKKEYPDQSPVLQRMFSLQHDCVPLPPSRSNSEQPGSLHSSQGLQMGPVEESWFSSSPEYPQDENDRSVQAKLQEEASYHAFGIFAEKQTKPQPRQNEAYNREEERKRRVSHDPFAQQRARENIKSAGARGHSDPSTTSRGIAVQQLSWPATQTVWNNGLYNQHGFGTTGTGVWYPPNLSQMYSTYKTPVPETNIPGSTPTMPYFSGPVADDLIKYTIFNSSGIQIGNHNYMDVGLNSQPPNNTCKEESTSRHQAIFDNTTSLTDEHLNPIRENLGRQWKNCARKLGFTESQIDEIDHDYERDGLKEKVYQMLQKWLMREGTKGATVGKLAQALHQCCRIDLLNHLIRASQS
Description: (§1) In this example, U937 and L929 cells were exposed to compounds of the present disclosure and a cell necroptosis assay was conducted to evaluate the compounds' activity against human RIP1 and murine RIP1.
(§2) U937 and L929 cells were obtained from the American Type Culture Collection (Manassa, Va., USA). Both cells were maintained in logarithmic growth phase in complete RPMI 1640 media (Sigma, ST Louis, Mo., USA) supplemented with 10% fetal bovine serum (Sigma, ST Louis, Mo., USA) at 37° C. with 5% CO2. For necroptosis assay, L929 cells were plated for 18 h in 100 µL/well medium at 10K cells/well in Costar 96-well black clear-bottom plates (Fisher Scientific, Hampton, N.H., USA); U937 cells were plated on the day of the assay in 50 µL/well medium containing 60 uM zVAD-fmk (Lonza, Basel, Switzerland) at 50K cells/well. Medium from L929 cells were removed from the 96-well plates and replaced with 50 µL/well new medium containing 40 uM zVAD-fmk. Each compound of the present disclosure evaluated in this example was serially diluted in DMSO from 2.5 mM in 4-fold dilutions, and then diluted 1:125 in complete medium. 50 µL/well 2× of the compound was then added to the cells in the plates. The cells were pre-incubated with the compound for 1 hour at 37° C. with 5% CO2 and before addition of 10 µL/well 11×TNFa (Peprotech, Rocky Hill, N.J., USA) to give a final concentration of 2 ng/mL for TNFa. The relative amount of necroptosis cells was determined by luminescent using a Wallac Victor2 Luminometer (PerkinElmer, Waltham, Mass., USA) and a CellTiter-Glo® Luminescent Cell Viability Reagent Assay (Promega, Madison, Wis., USA) added per manufacturer instructions after 18 hours of TNFa stimulation at 37° C. with 5% CO2.Results from this example are summarized in Table 2. This example establishes that embodiments of the compounds described herein have unexpectedly potent activity against human RIP1 and murine RIP1, which allows their assessment in in vivo mouse models of disease.

human RIP1 = target: T2, human RIP1 (Homo sapiens, UniProt Q13546); test: U937 cell necroptosis assay (TNFa + zVAD, CellTiter-Glo); assay type: cell-based; details: U937 Zvad TNF CTG Recovery, U937 cells, TNFa 2 ng/mL + zVAD-fmk, 18 hours
T2 construct: U937 and L929 cells were obtained from the American Type Culture Collection; host or cells: U937
T2 sequence (Q13546 1-671): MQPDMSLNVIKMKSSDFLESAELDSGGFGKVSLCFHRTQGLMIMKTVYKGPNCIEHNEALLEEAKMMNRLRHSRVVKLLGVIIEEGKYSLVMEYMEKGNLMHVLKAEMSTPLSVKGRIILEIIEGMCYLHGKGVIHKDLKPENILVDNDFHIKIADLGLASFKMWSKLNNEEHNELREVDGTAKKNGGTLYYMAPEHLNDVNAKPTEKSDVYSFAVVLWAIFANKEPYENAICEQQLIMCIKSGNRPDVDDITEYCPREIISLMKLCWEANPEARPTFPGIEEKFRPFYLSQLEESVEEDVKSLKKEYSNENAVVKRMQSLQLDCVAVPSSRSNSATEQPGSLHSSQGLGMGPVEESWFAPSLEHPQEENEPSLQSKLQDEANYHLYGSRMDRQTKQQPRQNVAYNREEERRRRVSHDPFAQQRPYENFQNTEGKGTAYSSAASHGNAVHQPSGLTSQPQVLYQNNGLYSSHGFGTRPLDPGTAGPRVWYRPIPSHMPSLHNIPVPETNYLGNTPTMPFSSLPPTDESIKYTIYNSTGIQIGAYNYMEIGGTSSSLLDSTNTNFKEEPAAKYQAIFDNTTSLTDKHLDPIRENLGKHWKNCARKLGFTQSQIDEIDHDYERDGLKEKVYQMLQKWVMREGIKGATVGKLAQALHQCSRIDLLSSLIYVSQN
Description: as §1, §2

RIPK1 = target: T3, RIPK1 (Homo sapiens, UniProt Q13546); test: RIPK1 ADP-Glo biochemical kinase assay; details: 30 min at 30° C.
T3 sequence (Q13546 1-671): T2 sequence (Q13546 1-671)
Description: The final reaction volume was 5.0 μl.
Adding 5 μl of ADP-Glo™ terminated the reaction.

Compound | IC50 (RIPK1) | IC50 (murine RIP1) | IC50 (human RIP1)
CN1C(=O)C(NC(=O)c2n[nH]c(Cc3ccccc3)n2)CCc2ccc(N3CCN4CCC3CC4)cc21 (racemic) [Compound I-11, (±)-N-(8-(1,4-Diazabicyclo[3.2.2]nonan-4-yl)-1-methyl-2-oxo-2,3,4,5-tetrahydro-1H-benzo[b]azepin-3-yl)-5-benzyl-1H-1,2,4-triazole-3-carboxamide] | 808 nM |  | 1080 nM
O=C(NC1CCc2ccc(CN3CCN(c4ccncc4)CC3)cc2NC1=O)c1n[nH]c(Cc2ccccc2)n1 (racemic) [Compound I-6, (±)-5-Benzyl-N-(2-oxo-8-((4-(pyridin-4-yl)piperazin-1-yl)methyl)-2,3,4,5-tetrahydro-1H-benzo[b]azepin-3-yl)-1H-1,2,4-triazole-3-carboxamide] | 330 nM |  | 1460 nM
CN1C(=O)[C@@H](NC(=O)c2cc(Oc3ccccc3)ccn2)CCc2ccc(-c3ccc(C#CC(C)(C)O)nc3)cc21 [Compound I-2, (S)—N-(8-(6-(3-hydroxy-3-methylbut-1-yn-1-yl)pyridin-3-yl)-1-methyl-2-oxo-2,3,4,5-tetrahydro-1H-benzo[b]azepin-3-yl)-4-phenoxypicolinamide] | 33.4 nM | 142 nM | 2 nM
CN1C(=O)[C@@H](NC(=O)c2n[nH]c(Cc3ccccc3)n2)CCc2ccc(C#CC(C)(C)O)cc21 [Compound I-10, (S)-5-Benzyl-N-(8-(3-hydroxy-3-methylbut-1-yn-1-yl)-1-methyl-2-oxo-2,3,4,5-tetrahydro-1H-benzo[b]azepin-3-yl)-1H-1,2,4-triazole-3-carboxamide] | 39.2 nM | 37.8 nM | 1.7 nM
CN1C(=O)C(NC(=O)c2n[nH]c(Cc3ccccc3)n2)CCc2ccc(N3CC4(CCCCC4)C3)cc21 (racemic) [Compound I-12, (±)-5-Benzyl-N-(1-methyl-2-oxo-8-(2-azaspiro[3.5]nonan-2-yl)-2,3,4,5-tetrahydro-1H-benzo[b]azepin-3-yl)-1H-1,2,4-triazole-3-carboxamide] | 444 nM | 43.2 nM | 5.2 nM
CN1C(=O)C(NC(=O)c2nccc(-c3ccccc3)n2)CCc2ccc(CN3CCn4ncnc4C3)cc21 (racemic) [Compound I-39, (±)-N-(8-((5,6-dihydro-[1,2,4]triazolo[1,5-a]pyrazin-7(8H)-yl)methyl)-1-methyl-2-oxo-2,3,4,5-tetrahydro-1H-benzo[b]azepin-3-yl)-4-phenylpyrimidine-2-carboxamide] |  |  | 216 nM
CN1C(=O)C(NC(=O)c2n[nH]c(Cc3ccccc3)n2)CCc2ccc(CN3CCN(c4ccncc4)CC3)cc21 (racemic) [Compound I-4, (±)-5-Benzyl-N-(1-methyl-2-oxo-8-((4-(pyridin-4-yl)piperazin-1-yl)methyl)-2,3,4,5-tetrahydro-1H-benzo[b]azepin-3-yl)-1H-1,2,4-triazole-3-carboxamide] | 525 nM |  | 53.9 nM
O=C(NC1CCc2ccc(CN3CCN(c4ccncc4)CC3)cc2NC1=O)c1ncn(Cc2c(Cl)cccc2Cl)n1 (racemic) [Compound I-5, (±)-1-(2,6-Dichlorobenzyl)-N-(2-oxo-8-((4-(pyridin-4-yl)piperazin-1-yl)methyl)-2,3,4,5-tetrahydro-1H-benzo[b]azepin-3-yl)-1H-1,2,4-triazole-3-carboxamide] | 65.6 nM |  | 16.4 nM
O=C(NC1CCc2ccc(CN3CCN(c4ccncc4)CC3)cc2NC1=O)c1n[nH]c(Cc2ccccc2)n1 (racemic) [Compound I-7, (±)-5-Benzyl-N-(2-oxo-8-((4-(pyridin-4-yl)piperazin-1-yl)methyl)-2,3,4,5-tetrahydro-1H-benzo[b]azepin-3-yl)-1H-1,2,4-triazole-3-carboxamide] | 806 nM |  | 2650 nM

Further lines, with some results ahead:

IC50 (RIPK1) | Compound | IC50 (murine RIP1) | IC50 (human RIP1)
26 nM | CN1C(=O)[C@@H](NC(=O)n2cc(Cc3ccc(F)cc3)cn2)CCc2ccc(C#CC3(O)CCOCC3)cc21 [Compound I-34, (S)-4-(4-Fluorobenzyl)-N-(8-((4-hydroxytetrahydro-2H-pyran-4-yl)ethynyl)-1-methyl-2-oxo-2,3,4,5-tetrahydro-1H-benzo[b]azepin-3-yl)-1H-pyrazole-1-carboxamide] | 5.9 nM | 0.4 nM
58.1 nM | CN1C(=O)C(NC(=O)c2cc(Oc3ccccc3)ccn2)CCc2ccc(C#CC(C)(C)O)cc21 (racemic) [Compound I-24, (±)-N-(8-(3-Hydroxy-3-methylbut-1-yn-1-yl)-1-methyl-2-oxo-2,3,4,5-tetrahydro-1H-benzo[b]azepin-3-yl)-4-phenoxypicolinamide] | 13 nM | 1.9 nM
73 nM | CC(C)(O)C#Cc1ccc2c(c1)NC(=O)[C@@H](NC(=O)c1cc(Oc3ccc(F)cc3)ccn1)CC2 [Compound I-35, (S)-4-(4-Fluorophenoxy)-N-(8-(3-hydroxy-3-methylbut-1-yn-1-yl)-2-oxo-2,3,4,5-tetrahydro-1H-benzo[b]azepin-3-yl)picolinamide] | 1790 nM | 552 nM
38.8 nM | CN1C(=O)[C@@H](NC(=O)c2ccn(Cc3ccccc3)n2)CCc2ccc(N3CC4(CCOCC4)C3)cc21 [Compound I-32, (S)-1-Benzyl-N-(1-methyl-2-oxo-8-(7-oxa-2-azaspiro[3.5]nonan-2-yl)-2,3,4,5-tetrahydro-1H-benzo[b]azepin-3-yl)-1H-pyrazole-3-carboxamide] | 182 nM | 2.7 nM
4460 nM | CN1C(=O)C(NC(=O)c2nccc(-c3ccccc3)n2)CCc2ccc(CN3CCN(c4ccncc4)CC3)cc21 (racemic) [Compound I-38, (±)-N-(1-Methyl-2-oxo-8-((4-(pyridin-4-yl)piperazin-1-yl)methyl)-2,3,4,5-tetrahydro-1H-benzo[b]azepin-3-yl)-4-phenylpyrimidine-2-carboxamide] |  | 6360 nM
661 nM | O=C(NC1CCc2ccc(CN3CCN(c4ccncc4)CC3)cc2NC1=O)c1cc(Oc2ccccc2)ccn1 (racemic) [Compound I-26, (±)-N-(2-Oxo-8-((4-(pyridin-4-yl)piperazin-1-yl)methyl)-2,3,4,5-tetrahydro-1H-benzo[b]azepin-3-yl)-4-phenoxypicolinamide] |  | 3890 nM
